Measured values reported in patent US4877774A, “Administration of steroid hormones” (The United States of America as represented by the …, priority 1987, dated 1989).
Values after ≈ are worked out from the molar mass of the structure shown. Values joined by “and” are separate entries in the source; they are usually repeats but may differ in a detail not shown here. Equal entries are not always repeated.

Experiments:
[1] = human trial; cited from earlier work
amylases of human saliva = conditions: cited from earlier work
physchem [2] = assay: physchem
Description: The appropriate proportions in the mixture can be determined by examining the descending curvature of the Bs-type phase solubility of FIG. 1.
The appropriate mixture was determined by examining the descending curvature of the Bs-type phase solubility diagram, as shown in FIG. 1. […] The complex, which precipitated as a microcrystalline powder, was removed by filtration and dried under vacuum at room temperature for 24 hours.

physchem [3] = conditions: water
Description: The dissolution rates of testosterone alone or its release from complexes of interest were measured and compared with published data.

OC[C@H]1O[C@@H]2O[C@H]3[C@H](O)[C@@H](O)[C@@H](O[C@H]4[C@H](O)[C@@H](O)[C@@H](O[C@H]5[C@H](O)[C@@H](O)[C@@H](O[C@H]6[C@H](O)[C@@H](O)[C@@H](O[C@H]7[C@H](O)[C@@H](O)[C@@H](O[C@H]8[C@H](O)[C@@H](O)[C@@H](O[C@H]1[C@H](O)[C@H]2O)O[C@@H]8CO)O[C@@H]7CO)O[C@@H]6CO)O[C@@H]5CO)O[C@@H]4CO)O[C@@H]3CO [beta-cyclodextrin]
administration of testosterone, estradiol, or progesterone [1]: marginal

OC[C@H]1O[C@@H]2O[C@H]3[C@H](O)[C@@H](O)[C@@H](O[C@H]4[C@H](O)[C@@H](O)[C@@H](O[C@H]5[C@H](O)[C@@H](O)[C@@H](O[C@H]6[C@H](O)[C@@H](O)[C@@H](O[C@H]7[C@H](O)[C@@H](O)[C@@H](O[C@H]8[C@H](O)[C@@H](O)[C@@H](O[C@H]9[C@H](O)[C@@H](O)[C@@H](O[C@H]1[C@H](O)[C@H]2O)O[C@@H]9CO)O[C@@H]8CO)O[C@@H]7CO)O[C@@H]6CO)O[C@@H]5CO)O[C@@H]4CO)O[C@@H]3CO [gamma-cyclodextrin]
susceptibility to the amylases of human saliva (amylases of human saliva): susceptible | solubility (physchem [2]; water): 168 mM (≈ 218 mg/mL)

C[C@]12CC[C@H]3[C@@H](CCC4=CC(=O)CC[C@@]43C)[C@@H]1CC[C@@H]2O [testosterone]
solubility (physchem [3]): 37 µg/mL (≈ 128 µM) | solubility (physchem [2]; concentration of testosterone in water (without cyclodextrin), 25° C.): 130 µM and 37 µg/mL | solubility (physchem [2]; gamma-cyclodextrin, limit value of testosterone concentration, with gamma-cyclodextrin, 25° C.): 1210 µM and 350 µg/mL | solubility (physchem [2]; gamma-cyclodextrin, maximal solubilization of testosterone, with gamma-cyclodextrin, 25° C.): 8700 µM and 2500 µg/mL
